From PubChem BioAssay AID485301 (The Scripps Research Institute Molecular Screening Center, 2010)
Calls of active or inactive are those of the source.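 Rule for the calls: active = IC50 of 10 µM or less against the helicase of at least one HCV strain tested; inactive = the rest.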

Key:
Assay in all cases: HCV NS3 helicase unwinding inhibitors, late-stage follow-up, selectivity assay, biochemical, real-time fluorescence, genotypes 1b J4, 1b con1, 2a JFH1 (AID 485301)
Conditions in all cases: Cy5 molecular beacon fluorescence
NS3h 1b (J4) = target: NS3h 1b (J4)
NS3h 1b (con1) = target: NS3h 1b (con1)
NS3h 2a (JFH1) = target: NS3h 2a (JFH1)

IC50 (NS3h 1b (J4))	IC50 (NS3h 1b (con1))	IC50 (NS3h 2a (JFH1))	SMILES
> 500 µM (inactive)	> 500 µM (inactive)	–	COc1ccc(/C=N/NC(=O)c2cc(O)c(O)c(O)c2)cc1COc1ccc(C(=O)OCC(C)C)cc1
> 500 µM (inactive)	> 500 µM (inactive)	> 500 µM (inactive)	COc1ccc(C=NNC(=O)c2cc(O)c(O)c(O)c2)cc1COc1ccc(C(=O)OCC(C)C)cc1
> 500 µM (inactive)	> 500 µM (inactive)	> 500 µM (inactive)	COc1cc(C2C(C(=O)c3ccc(C)o3)=C(O)C(=O)N2c2cc(C)on2)ccc1OCc1ccccc1 (stereo not drawn)
> 500 µM (inactive)	> 500 µM (inactive)	> 500 µM (inactive)	COc1cccc(-n2c(SCc3cc(=O)oc4cc(O)c(O)cc34)nc3ccccc3c2=O)c1

Continued, compound first:

SMILES	IC50 (NS3h 1b (J4))	IC50 (NS3h 1b (con1))	IC50 (NS3h 2a (JFH1))
Cc1ccc(C(=O)C2=C(O)C(=O)N(Cc3ccco3)C2c2cccc(Cl)c2)o1 (stereo not drawn)	> 500 µM (inactive)	> 500 µM (inactive)	> 500 µM (inactive)
CCOc1cccc(C2C(C(=O)c3ccc(C)o3)=C(O)C(=O)N2Cc2ccccc2)c1 (stereo not drawn)	> 500 µM (inactive)	> 500 µM (inactive)	> 500 µM (inactive)
Cc1cc(N2C(=O)C(O)=C(C(=O)c3ccc(C)o3)C2c2ccc(OCc3ccccc3)cc2)no1 (stereo not drawn)	> 500 µM (inactive)	> 500 µM (inactive)	> 500 µM (inactive)
CCCCCOc1ccc(C2C(C(=O)c3ccc(C)o3)=C(O)C(=O)N2c2cc(C)on2)cc1 (stereo not drawn)	> 500 µM (inactive)	> 500 µM (inactive)	> 500 µM (inactive)
